Reference: US8901118B2, “Compounds and methods for kinase modulation, and indications therefor” (Plexxikon Inc., priority 2010, dated 2014)

Legend:
[1] = test system: Osteoclast precursor cells; test: Osteoclast differentiation assay (acid phosphatase readout); format: cell-based
Procedure: Further, an osteoclast differentiation assay is used to assess the efficacy of Fms inhibitors for treating bone disease such as osteoarthritis. On day 0, Osteoclast Medium BulletKit (Lonza catalog #PT-8001, containing Media, FBS, L-Glutamine, PenStrep, RANKL, and M-CSF) media is thawed and the FBS, L-glutamine and PenStrep from the kit is added to 100 mL of Osteoclast Precursor Basal medium to provide the Osteoclast Precursor Growth Medium (OPGM). This is warmed to 37° C. Osteoclast precursor cells (Lonza catalog #2T-110) frozen in cryovial are warmed to 37° C. and transferred to a 50 mL conical tube. The cryovial is rinsed with OPGM and added dropwise to the conical tube of cells with swirling, then the volume is adjusted to 20-30 mL with addition of OPGM. The cells are centrifuged at 200×g for 15 minutes at room temperature and all but approximately 3 mL of supernatant is removed to a new conical tube. The cells are suspended in the remaining supernatant and the volume is adjusted to 10-15 mL with OPGM added dropwise with swirling. The cells are centrifuged at 200×g for 15 minutes at room temperature and all but approximately 1 mL of supernatant is removed. The cells are resuspended in the remaining supernatant, counted, and the volume adjusted with an appropriate amount of OPGM to provide approximately 1×10^5 cells/mL. A 0.1 mL aliquot of cells is added to each well of a 96-well plate. Compound to be tested is prepared in DMSO for plating at a high concentration of 2.5 mM, with 8 point 1:3 serial dilutions. A 1 μL aliquot of each compound dilution is added to a 96 well v-bottom polypropylene plate and 0.124 mL of OPGM is added to the compound. Then 50 μL at of the compound in OPGM is added to the osteoclast precursor cells in 96-well plate (providing highest test concentration of 5 μM). RANKL (2 μg) from the BulletKit is reconstituted in 1 mL of OPGM, then vortexed and centrifuged briefly. A 792 μL at aliquot of RANKL is added to 6 mL of OPGM and 50 μL at is added to low control wells. Then 76.6 μL M-CSF (10 μg/mL) from the BulletKit is added to the remaining 5.8 mL of OPGM/RANKL solution (4×RANKL/M-CSF/OPGM). A 50 μL at aliquot of this is added to the remaining wells, and the remainder is stored at 4° C. for later use. The plate is incubated at 37° C. for 6 days, then the remaining OPGM/RANKL/M-CSF solution is warmed to 37° C. The remaining approximately 198 μL is combined with 6 mL of OPGM. The media is aspirated from the osteoclast wells and 100 μL of RANKL/OPGM is added to the low controls. The remaining RANKL/OPGM is combined with the approximately 18.5 μL of remaining M-CSF. The remaining 4×RANKL/M-CSF/OPGM from day 0 is diluted to 1× and combined with the freshly prepared solution. A 0.1 mL aliquot of this is added to each osteoclast well and incubated for 37° C. for 1 day. The Acid Phosphatase kit (Cayman Chemical catalog #10008051) is warmed to room temperature. The assay buffer is diluted 5 mL with 45 mL of water. For each plate, two substrate tablets are dissolved in 4.5 mL of the assay buffer, mixing by vortex to break up the tablet. Stop solution is diluted 12 mL with 36 mL of water. In a tissue culture hood, 20 μL of each osteoclast well supernatant is transferred to a 96 well plate. A 30 μL aliquot of the substrate solution is added to each well and incubated at 37° C. for 20 minutes, then added 100 μL stop solution to each well. The absorbance of each well is read at 405 nm on Safire plate reader. The absorbance reading is plotted vs. concentration to provide the IC50 for each compound.

[2] = test system: BCR-FMS BaF3 cells; test: Splenomegaly mouse model, BCR-FMS BaF3 cells; format: in vivo; conditions: dosed once per day at 10 mg per kg
Procedure, shortened: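 Female nu/nu mice given 5×10^6 engineered BaF3 cells i.v. on day 1; compound in 1.0% Polysorbate 80/0.5% HPMC/2.5% DMSO dosed orally once (sometimes twice) daily, days 10-18. Spleens weighed 4 h after final dose; % spleen growth inhibition calculated versus vehicle control.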

IC50 [1] [µM] | Compound | % spleen growth inhibition, Fms [2] [%]
< 0.1 | Cc1cnc2[nH]cc(Cc3ccc(NC4CCCCC4)nc3F)c2c1 [Compound P-3008, cyclohexyl-[6-fluoro-5-(5-methyl-1H-pyrrolo[2,3-b]pyridin-3-ylmethyl)-pyridin-2-yl]-amine] | 
 | O=C(c1cnc(NC2CCC(F)(F)CC2)c(F)c1)c1c[nH]c2ncnc(NC3CC3)c12 [Compound P-4053, [4-(cyclopropylamino)-7H-pyrrolo[2,3-d]pyrimidin-5-yl]-[6-[(4,4-difluorocyclohexyl)amino]-5-fluoro-3-pyridyl]methanone] | 69
